Assay results as given in patent publication US20080255192A1, “Methods and Compositions for Selectin Inhibition” (Wyeth, priority 2007, published 2008).

target: T1, P-selectin/PSGL-1 interaction (Homo sapiens, UniProt P16109); test: Biacore P-Selectin/PSGL-1 Inhibition Assay (surface plasmon resonance); type: binding; settings: 250 uM test compound, 500 nM P.LE, immobilized PSGL-1 19ek, 10% DMSO, pH 7.4
T1 construct: comprised of the lectin and epidermal growth factor-like (EGF) domains expressed in CHO cells; made in house; host or cells: CHO cells (P-LE)
T1 sequence (P16109 42-198): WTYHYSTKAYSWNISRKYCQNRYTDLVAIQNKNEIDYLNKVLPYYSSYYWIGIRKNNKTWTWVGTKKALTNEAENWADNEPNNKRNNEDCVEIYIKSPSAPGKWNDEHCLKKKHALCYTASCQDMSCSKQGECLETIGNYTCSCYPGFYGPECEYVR
Description: Surface plasmon resonance assays were performed on a Biacore 3000 instrument (Biacore Inc. Piscataway, N.J.) at 25° C. at a flow rate of 30 μL/minute and each assay consisted of a 60-second equilibration, a 60-μL sample injection (kinject), and a 300-second dissociation.
A purified, monomeric, truncated form of human PSGL-1, “19ek”, that contained all the necessary P-selectin binding determinants (see Goetz, et al., J. Cell Biol., 1997, 137: 509-519; and Sako, et al., Cell, 1995, 83: 323-331) was biotinylated via amine chemistry (Sulfo-NHS-LC-Biotin, Peirce) at a unique C-terminal lysine residue (see Somers, et al., Cell, 2000, 103: 467-479) and immobilized on a Biacore SA sensor chip (Biacore Inc.), using an HBS-EP buffer (Biacore Inc.), and the target 600-700 RU. The coated chip was re-equilibrated with an HBS-P buffer (Biacore Inc.) to which 1 mM CaCl2 and 1 mM MgCl2 (both from Fisher) were added to ensure sufficient calcium for the calcium-dependent interaction between the receptor and the ligand.
Test compounds were incubated for 1 hour in a 1.1× Biacore assay buffer. Each solution was centrifuged through a 0.2 µm filter, using a 96-well plate format (Millipore). Glycyrrhizin tri-sodium salt (TCI) was prepared as a positive control in parallel with the test compounds, in the same manner described above.
A soluble recombinant truncated form of human P-selectin, P-LE, comprised of the lectin and epidermal growth factor-like (EGF) domains expressed in CHO cells (see Somers, et al., Cell, 2000, 103: 467-479) was added to each filtered test compound solution. Final concentrations of reagents were 500 nM P.LE, 250 or 500 μM test compound (depending on structure) or 1 mM glycyrrhizin, 10% DMSO, and 1× Biacore buffer ([…], 150 mM NaCl, 1 mM CaCl2, and 1 mM MgCl2 (all reagents from Fisher)), with a pH of 7.4. Compounds active at 250 μM were titrated to further define activity. Test samples were supplied to the Biacore instrument in a 96-well plate.
The Biacore raw data file was exported as a text file to an Excel spreadsheet, where the buffer blanks bracketing the samples were averaged for each Biacore instrument flow cell (Fc), and subtracted from the averaged uninhibited P.LE samples and from all the other samples. The reference signal from Fcl (uncoated) was then subtracted from its corresponding active (coated) signal for each injection, a process known as double referencing (see Myszka, J. Mol. Recognit., 1999, 12(5): 279-284). The percent inhibition of binding was calculated by dividing the reference-subtracted inhibited signal by the reference-subtracted uninhibited signal, subtracting this value from 1, and multiplying the resulting value by 100. The replicate percent inhibition values were averaged and expressed as the mean ±standard deviation. The inter-experiment standard deviation of calculated percent inhibitions in the Biacore assay was ±5.

SMILES | inhibition at 250 µM [%]
Cc1ccc2nc(C3(c4ccccc4)CC3)c(O)c(C(=O)O)c2c1 [Compound 33, 3-hydroxy-6-methyl-2-(1-phenylcyclopropyl)quinoline-4-carboxylic acid] | ≤ 10
O=C(O)c1c(O)c(C2(c3ccccc3)CC2)nc2c(C(F)(F)F)cccc12 [Compound 34, 3-hydroxy-2-(1-phenylcyclopropyl)-8-(trifluoromethyl)quinoline-4-carboxylic acid] | 44
O=C(O)c1c(O)c(C2(c3ccccc3)CC2)nc2c(-c3ccsc3)cccc12 [Compound 35, 3-hydroxy-2-(1-phenylcyclopropyl)-8-(thiophen-3-yl)quinoline-4-carboxylic acid] | 70
O=C(O)c1c(O)c(C2(c3ccc(Cl)cc3)CC2)nc2c3c(ccc12)CCCC3 [Compound 36, 2-(1-(4-chlorophenyl)cyclopropyl)-3-hydroxy-7,8,9,10-tetrahydrobenzo[h]quinoline-4-carboxylic acid] | 67
O=C(O)c1c(O)c(C2(c3ccc(Cl)cc3)CC2)nc2c(-c3ccsc3)cccc12 [Compound 37, 2-(1-(4-chlorophenyl)cyclopropyl)-3-hydroxy-8-(thiophen-3-yl)quinoline-4-carboxylic acid] | 78
O=C(O)c1c(O)c(C2(c3ccc(Cl)cc3)CC2)nc2c(C(F)(F)F)cccc12 [Compound 38, 2-(1-(4-chlorophenyl)cyclopropyl)-3-hydroxy-8-(trifluoromethyl)quinoline-4-carboxylic acid] | 52
CC(C)c1cccc2c(C(=O)O)c(O)c(C3(c4ccc(Cl)cc4)CC3)nc12 [Compound 39, 2-(1-(4-chlorophenyl)cyclopropyl)-3-hydroxy-8-isopropylquinoline-4-carboxylic acid] | 66
Cc1ccc2c(C(=O)O)c(O)c(C3(c4ccc(Cl)cc4)CC3)nc2c1C [Compound 40, 2-(1-(4-chlorophenyl)cyclopropyl)-3-hydroxy-7,8-dimethylquinoline-4-carboxylic acid] | 53
O=C(O)c1c(O)c(C2(c3ccc(Cl)cc3)CC2)nc2c(C(O)(C(F)(F)F)C(F)(F)F)cccc12 [Compound 41, 2-(1-(4-chlorophenyl)cyclopropyl)-8-(1,1,1,3,3,3-hexafluoro-2-hydroxypropan-2-yl)-3-hydroxyquinoline-4-carboxylic acid] | ≤ 10
O=C(O)c1c(O)c(C2(c3ccccc3)CC2)nc2c3c(ccc12)CCCC3 [Compound 42, 3-hydroxy-2-(1-phenylcyclopropyl)-7,8,9,10-tetrahydrobenzo[h]quinoline-4-carboxylic acid] | 52
Cc1ccc2c(C(=O)O)c(O)c(C3(c4ccccc4)CC3)nc2c1C [Compound 43, 3-hydroxy-7,8-dimethyl-2-(1-phenylcyclopropyl)quinoline-4-carboxylic acid] | 18
CC(C)c1cccc2c(C(=O)O)c(O)c(C3(c4ccccc4)CC3)nc12 [Compound 44, 3-hydroxy-8-isopropyl-2-(1-phenylcyclopropyl)quinoline-4-carboxylic acid] | 63
O=C(O)c1c(O)c(C2(c3ccccc3)CC2)nc2c(-c3ccccc3)cccc12 [Compound 45, 3-hydroxy-8-phenyl-2-(1-Phenylcyclopropyl)quinoline-4-carboxylic acid] | 37
O=C(O)c1c(O)c(C2(c3ccccc3)CC2)nc2c(OC(F)(F)F)cccc12 [Compound 46, 3-hydroxy-2-(1-phenylcyclopropyl)-8-(trifluoromethoxy)quinoline-4-carboxylic acid] | ≤ 10
O=C(O)c1c(O)c(C2(c3ccccc3)CC2)nc2c(Cl)cccc12 [Compound 47, 8-chloro-3-hydroxy-2-(1-phenylcyclopropyl)quinoline-4-carboxylic acid] | ≤ 10
